Measured values as given in patent US7153837B2, “Agent for protection of retinal neurons” (Ortho-McNeil Pharmaceutical Inc., priority 2001, dated 2006).

How the values were obtained:
[1] = test system: cultured retinal neurons of rat fetus; assay: glutamate-induced death of cultured retinal neurons of rat fetus (trypan blue exclusion); assay type: cell-based; settings: for Survival rate of cultured retinal neurons (%): 10 min, then 1 h drug-free, untreated 67, glutamate alone 46
Protocol: (1) Topiramate's Action on the Glutamate-Induced Death of Cultured Retinal Neurons of Rat Fetus: From rat fetuses (aged 17 to 19 days), retinal cells were taken out and isolated, and were cultured on a polyethylene-imine-coated plastic-covered slip in a 10% bovine fetal serum-containing Eagle's basal medium for seven days. From the eighth day, they were cultured in a 10% equine serum-containing Eagle's basal medium. On the sixth day of culture, cytosine arabinoside (10 μM) was added to inhibit the proliferation of non-neuronal cells. Next, the cells were incubated (37° C., 5% CO2.95% air) for 10 minutes in a medium which had been prepared by adding glutamate (1 mM) and topiramate in various concentrations (10 nM˜100 μM) to serum-free Eagle's basal medium. Then, cells were returned to serum-free Eagle's basal medium which contained neither glutamate nor topiramate, and were incubated (37° C., 5% CO2.95% air) for one hour, and, thereafter, toxicity was determined by trypan blue exclusion method. In detail, cells were immobilized with 10% neutral formalin solution, and were washed with physiological saline. Then, cells were dyed by adding trypan blue solution, and, thus, the number of cells was counted by phase-contrast microscope. Cells which had been dyed with trypan blue were regarded as dead, and non-dyed cells as surviving, and, thus, the survival rate of cultured cells was found from the proportion of the number of surviving cells to the number of total cells counted (at least 200). The group to which 1 mM of glutamate had been added and the group to which both 1 mM of glutamate and topiramate in various concentrations had been added are respectively called “Single 1 mM glutamate added group” and “1 mM glutamate+topiramate (various concentrations) added group”. Results concerning these groups were compared with the corresponding measured values of “Untreated group”, i.e., a group which had received no treatments. The values in the table are average values.

[2] = test system: ischemia-induced retinal damage; assay: ischemia-induced retinal damage in rat (ischemia-reperfusion, retinal histology); assay type: in vivo
From the text: (2) Topiramate's Action on Ischemia-Induced Retinal Damage in Rat:
Anesthesia was indued in rat with 3% halothane, and, then, anesthesia was maintained with 1% halothane (halothane was vaporized with 0.5 l oxygen/min. and 1.5 l dinitrogen monoxider/min.). Next, mydriasis was caused in right eye with atropine, and, then, 30 G injection needle which was connected with a vessel of physiological saline for instillation via a tube hung from the ceiling was stuck into anterior chamber, and, thus, a 130 mmHg hydraulic pressure was given, and ischemia was thereby induced After 45 minutes, the injection needle was removed, and retinal blood flow was allowed to make reperfusion. Administration was conducted by intraperitoneal injection into rats with physiological saline (solvent) and topiramate (200 mg/kg body weight) dissolved (partially suspended) in solvent, respectively. The administration was carried out twice respectively, i.e., two hours before and immediately after inschemia. Seven days after the administration, eyeball was taken out, immobilized overnight in 2% paraformaldehyde-2.5% glutaraldehyde, subjected to paraffin embedding, and was sectioned, and, thus, retinal slices (with a thickness of 3 μm) stained with hematoxylin-eosin (HE) were prepared. From eight slices which had been cut with an interval of 60 μm per one eyeball so that optic nerve head might be covered, three slices were optionally selected. With regard to thus selected three slices, there was taken a photograph of retina in the range of 1 to 1.5 mm on the left or right side from optic nerve head, and, thus, the number of cells in ganglion cell layer (GCL) in retina and the thickness of inner plaxiform layer (IPL) were measured. The group to which solvent had been administered and ischemia had been induced and the group to which topiramate dissolved in solvent had been administered and ischemia had been induced are respectively called “Solvent-administered group” and “Topiramate-administered group”. […]

## CC1(C)O[C@@H]2[C@@H](CO[C@@]3(COS(N)(=O)=O)OC(C)(C)O[C@@H]23)O1 [topiramate, 2,3:4,5-bis-O-(1-methylethylidene)-β-D-fructopyranose sulfamate]
[1]; 1 mM glutamate + 10 nM topiramate
  Survival rate of cultured retinal neurons (%): 50%
[1]; 1 mM glutamate + 100 nM topiramate
  Survival rate of cultured retinal neurons (%): 58%
[1]; 1 mM glutamate + 1 μM topiramate
  Survival rate of cultured retinal neurons (%): 60%
[1]; 1 mM glutamate + 10 μM topiramate
  Survival rate of cultured retinal neurons (%): 64%
[1]; 1 mM glutamate + 100 μM topiramate
  Survival rate of cultured retinal neurons (%): 65%
[1]; 1 mM glutamate, topiramate 10 nM-100 μM, summary of Table 1
  effect on death (apoptosis) of cultured retinal neurons: remarkably inhibit the death (apoptosis) of cultured retinal neurons in a concentration-dependent manner
[2]; 200 mg/kg intraperitoneal twice (2 h before and immediately after 45 min ischemia), 7 days after, normal 49, solvent 21
  Thickness of IPL (μm): 30 μm
[2]; 200 mg/kg intraperitoneal twice (2 h before and immediately after 45 min ischemia), 7 days after, normal 68, solvent 36
  Number of cells in GCL (number/mm): 44 number/mm
[2]; 200 mg/kg intraperitoneal, summary of Table 2
  effect on decrease of number of cells in ganglion cell layer and thinning of inner plexiform layer: excellent in effectively preventing both the decrease of number of cells in ganglion cell layer and the thinning of inner plexiform layer
